Laboratory results as given in US10738028B2, “Spiro three-membered ring, spiro five-membered ring peptide deformylase inhibitor and use thereof in antibacteria and anti-tumor” (priority 2016, dated 2020).

Assays:
Type in all cases: cell-based
[1] = system: methicillin-resistant Staphylococcus epidermidis (MRSE); experiment: MIC, two-fold agar dilution (CLSI), clinical isolates; conditions: for Anti-bacterial activity (MIC), strain MRSE 15-1: clinical isolate MRSE 15-1; for Anti-bacterial activity (MIC), strain MRSE 15-2: clinical isolate MRSE 15-2; for Anti-bacterial activity (MIC), strain MRSE 15-3: clinical isolate MRSE 15-3; for Anti-bacterial activity (MIC), strain MRSE 15-7: clinical isolate MRSE 15-7
Procedure, shortened: (§1)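 Following the American Clinical and Laboratory Standards Institute procedure, agar two-fold dilution served to determine minimum inhibitory concentrations.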

[2] = system: methicillin-resistant Staphylococcus aureus (MRSA); experiment: as above; conditions: for Anti-bacterial activity (MIC), strain MRSA 15-1: clinical isolate MRSA 15-1; for Anti-bacterial activity (MIC), strain MRSA 15-2: clinical isolate MRSA 15-2; for Anti-bacterial activity (MIC), strain MRSA 15-3: clinical isolate MRSA 15-3; for Anti-bacterial activity (MIC), strain MRSA 15-4: clinical isolate MRSA 15-4
Procedure, shortened: as §1

[3] = system: methicillin-sensitive Staphylococcus epidermidis (MSSE); experiment: as above; conditions: for Anti-bacterial activity (MIC), strain MSSE 15-4: clinical isolate MSSE 15-4; for Anti-bacterial activity (MIC), strain MSSE 15-5: clinical isolate MSSE 15-5; for Anti-bacterial activity (MIC), strain MSSE 15-6: clinical isolate MSSE 15-6
Procedure, shortened: as §1

[4] = system: Moraxella catarrhalis (BCA); experiment: as above
Procedure, shortened: as §1

[5] = system: Escherichia coli (including ESBLs, non-ESBLs); experiment: as above; conditions: for Anti-bacterial activity (MIC), strain ECO+ 15-1: clinical isolate ECO+ 15-1; for Anti-bacterial activity (MIC), strain ECO+ 15-2: clinical isolate ECO+ 15-2; for Anti-bacterial activity (MIC), strain ECO+ 15-3: clinical isolate ECO+ 15-3; for Anti-bacterial activity (MIC), strain ECO+ 15-4: clinical isolate ECO+ 15-4; for Anti-bacterial activity (MIC), strain ECO− 15-1: clinical isolate ECO− 15-1; for Anti-bacterial activity (MIC), strain ECO− 15-2: clinical isolate ECO− 15-2; for Anti-bacterial activity (MIC), strain ECO− 15-3: clinical isolate ECO− 15-3; for Anti-bacterial activity (MIC), strain ECO− 15-4: clinical isolate ECO− 15-4
Procedure, shortened: as §1

[6] = system: Streptococcus pneoumoniae (SPN); experiment: as above
Procedure, shortened: as §1

[7] = system: Enterococcus faecium (EFM); experiment: as above
Procedure, shortened: as §1

[8] = system: Enterococcus faecalis (EFA); experiment: as above
Procedure, shortened: as §1

[9] = system: methicillin-sensitive Staphylococcus aureus (MSSA); experiment: as above; conditions: for Anti-bacterial activity (MIC), strain MSSA 15-3: clinical isolate MSSA 15-3; for Anti-bacterial activity (MIC), strain MSSA 15-4: clinical isolate MSSA 15-4; for Anti-bacterial activity (MIC), strain MSSA 15-5: clinical isolate MSSA 15-5; for Anti-bacterial activity (MIC), strain MSSA 15-6: clinical isolate MSSA 15-6
Procedure, shortened: as §1

[10] = system: MGC-803 gastric cancer cell line; experiment: CCK-8 proliferation inhibition; conditions: concentration of 30 μM; for Inhibition of proliferation, Gastric cancer MGC-803: 72 hours, 30 µM
Procedure, shortened: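 Cells were seeded at 2000 cells/well and cultured overnight at 37° C, 5% CO2, then exposed for 72 hours to compounds diluted from DMSO stocks. Controls received 1‰ DMSO. CCK-8 (1:10 diluted) replaced the medium. MGC-803 and Jurkat were grown in 1640, PC3 in F12, and MCF-7 in DMEM high glucose, each with 10% newborn bovine serum.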

[11] = system: A549 lung cancer cell line; experiment: CCK-8 proliferation inhibition; conditions: concentration of 30 μM; for inhibition at 30 µM: Homo sapiens, A549, 72 h; for Inhibition of proliferation, Lung cancer A549: 72 hours, 30 µM
Procedure, shortened: (§2)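 Plating at 2000 cells/well, then incubation overnight at 37° C. Next, a range of compound concentrations for 72 hours (control 1‰ DMSO). Finally, medium decanted and CCK-8 diluted 1:10 added.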

[12] = system: BEL-7402 liver cancer cell line; experiment: CCK-8 proliferation inhibition; conditions: concentration of 30 μM, 72 hours, 30 µM
Procedure, shortened: as §2

[13] = system: HCT-116 colorectal cancer cell line; experiment: CCK-8 proliferation inhibition; conditions: concentration of 30 μM; 72 hours; CCK-8; 30 µM
Procedure, shortened: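 HCT-116 cells, seeded at 2000 cells/well in McCoy's 5A with 10% newborn bovine serum, were cultured overnight at 37° C., 5% CO2, then exposed to compound dilutions in medium for 72 hours. Viability was read with 1:10 diluted CCK-8; controls received 1‰ DMSO.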

SMILES: Cc1cnc(NC(=O)[C@@H]2CC3(CC3)CN2C(=O)[C@@H](CC(=O)NO)CC2CCCC2)s1 [Example 65]
- Anti-bacterial activity (MIC), strain MRSE 15-1 [1]: 0.015 µg/mL
- Anti-bacterial activity (MIC), strain MRSE 15-2 [1]: 0.125 µg/mL
- Anti-bacterial activity (MIC), strain MRSE 15-3 [1]: 0.125 µg/mL
- Anti-bacterial activity (MIC), strain MRSE 15-7 [1]: 0.125 µg/mL
- Anti-bacterial activity (MIC), strain MRSA 15-1 [2]: 0.06 µg/mL
- Anti-bacterial activity (MIC), strain MRSA 15-2 [2]: 0.125 µg/mL
- Anti-bacterial activity (MIC), strain MRSA 15-3 [2]: 0.06 µg/mL
- Anti-bacterial activity (MIC), strain MRSA 15-4 [2]: 0.125 µg/mL
- Anti-bacterial activity (MIC), strain MSSE 15-4 [3]: 0.125 µg/mL
- Anti-bacterial activity (MIC), strain MSSE 15-5 [3]: 0.06 µg/mL
- Anti-bacterial activity (MIC), strain MSSE 15-6 [3]: 0.015 µg/mL
- Anti-bacterial activity (MIC), strain BCA 14-1 ([4]; clinical isolate BCA 14-1): 0.5 µg/mL
- Anti-bacterial activity (MIC), strain BCA 14-4 ([4]; clinical isolate BCA 14-4): 0.5 µg/mL
- Anti-bacterial activity (MIC), strain BCA 14-5 ([4]; clinical isolate BCA 14-5): 0.125 µg/mL
- Anti-bacterial activity (MIC), strain BCA 14-6 ([4]; clinical isolate BCA 14-6): 0.125 µg/mL
- Anti-bacterial activity (MIC), strain BCA 14-7 ([4]; clinical isolate BCA 14-7): 0.5 µg/mL
- Anti-bacterial activity (MIC), strain BCA 14-8 ([4]; clinical isolate BCA 14-8): 0.5 µg/mL
- Anti-bacterial activity (MIC), strain BCA 14-10 ([4]; clinical isolate BCA 14-10): 0.125 µg/mL
- Anti-bacterial activity (MIC), strain ECO+ 15-1 [5]: 8 µg/mL
- Anti-bacterial activity (MIC), strain ECO+ 15-2 [5]: 8 µg/mL
- Anti-bacterial activity (MIC), strain ECO+ 15-3 [5]: 16 µg/mL
- Anti-bacterial activity (MIC), strain ECO+ 15-4 [5]: 16 µg/mL
- Anti-bacterial activity (MIC), strain ECO− 15-1 [5]: 8 µg/mL
- Anti-bacterial activity (MIC), strain ECO− 15-2 [5]: 16 µg/mL
- Anti-bacterial activity (MIC), strain ECO− 15-3 [5]: 16 µg/mL
- Anti-bacterial activity (MIC), strain ECO− 15-4 [5]: 8 µg/mL
- Anti-bacterial activity (MIC), strain SPN 16-2 ([6]; clinical isolate SPN 16-2): 0.125 µg/mL
- Anti-bacterial activity (MIC), strain SPN 16-4 ([6]; clinical isolate SPN 16-4): 0.06 µg/mL
- Anti-bacterial activity (MIC), strain EFM 15-1 ([7]; clinical isolate EFM 15-1): > 32 µg/mL
- Anti-bacterial activity (MIC), strain EFM 15-2 ([7]; clinical isolate EFM 15-2): > 32 µg/mL
- Anti-bacterial activity (MIC), strain EFM 15-3 ([7]; clinical isolate EFM 15-3): > 32 µg/mL
- Anti-bacterial activity (MIC), strain EFM 15-4 ([7]; clinical isolate EFM 15-4): 0.25 µg/mL
- Anti-bacterial activity (MIC), strain EFM 15-5 ([7]; clinical isolate EFM 15-5): 0.125 µg/mL
- Anti-bacterial activity (MIC), strain EFM 15-6 ([7]; clinical isolate EFM 15-6): 1 µg/mL
- Anti-bacterial activity (MIC), strain EFA 15-1 ([8]; clinical isolate EFA 15-1): 32 µg/mL
- Anti-bacterial activity (MIC), strain EFA 15-2 ([8]; clinical isolate EFA 15-2): 32 µg/mL
- Anti-bacterial activity (MIC), strain EFA 15-3 ([8]; clinical isolate EFA 15-3): 32 µg/mL
- Anti-bacterial activity (MIC), strain EFA 15-4 ([8]; clinical isolate EFA 15-4): 32 µg/mL
- Anti-bacterial activity (MIC), strain EFA 15-5 ([8]; clinical isolate EFA 15-5): 32 µg/mL
- Anti-bacterial activity (MIC), strain EFA 15-6 ([8]; clinical isolate EFA 15-6): > 32 µg/mL
- Anti-bacterial activity (MIC), strain EFA 15-9 ([8]; clinical isolate EFA 15-9): 4 µg/mL
- Anti-bacterial activity (MIC), strain MSSA 15-3 [9]: 0.125 µg/mL
- Anti-bacterial activity (MIC), strain MSSA 15-4 [9]: 0.015 µg/mL
- Anti-bacterial activity (MIC), strain MSSA 15-5 [9]: 0.015 µg/mL
- Anti-bacterial activity (MIC), strain MSSA 15-6 [9]: 16 µg/mL
- Inhibition of proliferation, Gastric cancer MGC-803 [10]: 72%
- inhibition at 30 µM [11]: > 50%
- Inhibition of proliferation, Lung cancer A549 [11]: 67%
- Inhibition of proliferation, Liver cancer BEL-7402 [12]: 81%
- HCT116 inhibition rate/% [13]: 83%

SMILES: O=C(C[C@@H](CC1CCCC1)C(=O)N1CC2(CC2)C[C@H]1C(=O)Nc1cccnn1)NO [Example 66]
- Anti-bacterial activity (MIC), strain MRSE 15-1 [1]: 0.25 µg/mL
- Anti-bacterial activity (MIC), strain MRSE 15-2 [1]: 1 µg/mL
- Anti-bacterial activity (MIC), strain MRSE 15-3 [1]: 1 µg/mL
- Anti-bacterial activity (MIC), strain MRSE 15-7 [1]: 1 µg/mL
- Anti-bacterial activity (MIC), strain MRSA 15-1 [2]: 0.5 µg/mL
- Anti-bacterial activity (MIC), strain MRSA 15-2 [2]: 2 µg/mL
- Anti-bacterial activity (MIC), strain MRSA 15-3 [2]: 0.5 µg/mL
- Anti-bacterial activity (MIC), strain MRSA 15-4 [2]: 1 µg/mL
- Anti-bacterial activity (MIC), strain MSSE 15-3 ([3]; clinical isolate MSSE 15-3): 0.06 µg/mL
- Anti-bacterial activity (MIC), strain MSSE 15-4 [3]: 1 µg/mL
- Anti-bacterial activity (MIC), strain MSSE 15-5 [3]: 1 µg/mL
- Anti-bacterial activity (MIC), strain MSSE 15-6 [3]: 0.06 µg/mL
- Anti-bacterial activity (MIC) ([4]; strain BCA 14-1): 2 µg/mL
- Anti-bacterial activity (MIC) ([4]; strain BCA 14-4): 2 µg/mL
- Anti-bacterial activity (MIC) ([4]; strain BCA 14-5): 2 µg/mL
- Anti-bacterial activity (MIC) ([4]; strain BCA 14-6): 2 µg/mL
- Anti-bacterial activity (MIC) ([4]; strain BCA 14-7): 2 µg/mL
- Anti-bacterial activity (MIC) ([4]; strain BCA 14-8): 2 µg/mL
- Anti-bacterial activity (MIC) ([4]; strain BCA 14-10): 0.5 µg/mL
- Anti-bacterial activity (MIC), strain ECO+ 15-1 [5]: 16 µg/mL
- Anti-bacterial activity (MIC), strain ECO+ 15-2 [5]: 32 µg/mL
- Anti-bacterial activity (MIC), strain ECO+ 15-3 [5]: 16 µg/mL
- Anti-bacterial activity (MIC), strain ECO+ 15-4 [5]: 16 µg/mL
- Anti-bacterial activity (MIC), strain ECO− 15-1 [5]: 16 µg/mL
- Anti-bacterial activity (MIC), strain ECO− 15-2 [5]: 16 µg/mL
- Anti-bacterial activity (MIC), strain ECO− 15-3 [5]: 32 µg/mL
- Anti-bacterial activity (MIC), strain ECO− 15-4 [5]: 8 µg/mL
- Anti-bacterial activity (MIC) ([6]; strain SPN 16-2): 0.25 µg/mL
- Anti-bacterial activity (MIC) ([6]; strain SPN 16-4): 0.25 µg/mL
- Anti-bacterial activity (MIC) ([7]; strain EFM 15-1): 16 µg/mL
- Anti-bacterial activity (MIC) ([7]; strain EFM 15-2): 16 µg/mL
- Anti-bacterial activity (MIC) ([7]; strain EFM 15-3): 16 µg/mL
- Anti-bacterial activity (MIC) ([7]; strain EFM 15-4): 1 µg/mL
- Anti-bacterial activity (MIC) ([7]; strain EFM 15-5): 0.125 µg/mL
- Anti-bacterial activity (MIC) ([7]; strain EFM 15-6): 0.5 µg/mL
- Anti-bacterial activity (MIC) ([8]; strain EFA 15-1): 4 µg/mL
- Anti-bacterial activity (MIC) ([8]; strain EFA 15-2): 4 µg/mL
- Anti-bacterial activity (MIC) ([8]; strain EFA 15-3): 2 µg/mL
- Anti-bacterial activity (MIC) ([8]; strain EFA 15-4): 16 µg/mL
- Anti-bacterial activity (MIC) ([8]; strain EFA 15-5): 16 µg/mL
- Anti-bacterial activity (MIC) ([8]; strain EFA 15-6): 16 µg/mL
- Anti-bacterial activity (MIC) ([8]; strain EFA 15-9): 16 µg/mL
- Anti-bacterial activity (MIC), strain MSSA 15-3 [9]: 1 µg/mL
- Anti-bacterial activity (MIC), strain MSSA 15-4 [9]: 0.5 µg/mL
- Anti-bacterial activity (MIC), strain MSSA 15-5 [9]: 0.5 µg/mL
- Anti-bacterial activity (MIC), strain MSSA 15-6 [9]: 32 µg/mL
- inhibition at 30 µM ([10]; Homo sapiens, MGC-803, 72 h): > 50%
- Inhibition of proliferation, Gastric cancer MGC-803 [10]: 60%
- inhibition at 30 µM [11]: > 50%
- Inhibition of proliferation, Lung cancer A549 [11]: 56%
- Inhibition of proliferation, Liver cancer BEL-7402 [12]: 74%
- HCT116 inhibition rate/% [13]: 75%
